{"source": "patent US9586904B2", "about": "“Preparation of (−)-huperzine A” (priority 2013, dated 2017)", "test": "Solubility of huperzine A-chiral acid salts and of (±)-huperzine A in solvents", "assay_type": "physicochemical", "from_the_text": "This invention first prepared a series of huperzine A-chiral acid salts.", "data": [{"substance": "(±)-huperzine A", "values": [{"measurement": "solubility in most solvents", "setting": "most solvents", "result": "rather poorly soluble"}, {"measurement": "solubility in various single solvents", "setting": "various single solvents, during salt formation", "result": "very poor"}]}]}
